What was measured:
aldose reductase = target: T1, aldose reductase (Bos taurus, UniProt P16116); experiment: inhibition of isolated aldose reductase enzyme activity (procedure of S. Hayman et al. as modified by K. Sestanj et al.); assay type: biochemical, calf; conditions: for IC50: partially purified aldose reductase from calf lens, 50% reduction in enzyme activity, read-out: Concentration Level (IC50); for aldose reductase inhibitory activity: statement in words
T1 construct: partially purified aldose reductase enzyme obtained from calf lens; from tissue; host or cells: calf lens
Description: (§1) The activity of the compounds of the present invention, as agents for the control of chronic diabetic complications, is determined by their ability to successfully pass one or more of the following standard biological and/or pharmacological tests, viz., (1) measuring their ability to inhibit the enzyme activity of isolated aldose reductase; (2) measuring their ability to reduce or inhibit sorbitol accumulation in the sciatic nerve of acutely streptozotocinized (i.e., diabetic) rats; (3) measuring their ability to reverse already-elevated sorbitol levels in the sciatic nerve and lens of chronic streptozotocin-induced diabetic rats; (4) measuring their ability to prevent or inhibit galactitol formation in the lens of acutely galactosemic rats, and (5) measuring their ability to delay cataract formation and reduce the severity of lens opacities in chronic galactosemic rats. The following tetrahydroquinoline-derived spiro-hydantoin compounds of Examples 1-4, respectively, were tested for their ability to reduce or inhibit aldose reductase enzyme activity via the procedure of S. Hayman et al., as described in the Journal of Biological Chemistry, Vol. 240, p. 877 (1965) and as modified by K. Sestanj et al. in U.S. Pat. No. 3,821,383. In every case, the substrate employed was partially purified aldose reductase enzyme obtained from calf lens.

[1] = test system: sorbitol levels in the lens and sciatic nerve of diabetic subjects; experiment: lowering of sorbitol levels in the lens and nerve of diabetic subjects; assay type: in vivo; conditions: statement in words
Description: as §1, with “rats.” for “rats. The following tetrahydroquinoline-derived spiro-hydantoin compounds of Examples 1-4, respectively, were tested for their ability to reduce or inhibit aldose reductase enzyme activity via the procedure of S. Hayman et al., as described in the Journal of Biological Chemistry, Vol. 240, p. 877 (1965) and as modified by K. Sestanj et al. in U.S. Pat. No. 3,821,383. In every case, the substrate employed was partially purified aldose reductase enzyme obtained from calf lens.”

[2] = test system: galactitol levels in the lens of galactosemic subjects; experiment: lowering of galactitol levels in the lens of galactosemic subjects; assay type: in vivo; conditions: statement in words
Description: as §1, with “rats.” for “rats. The following tetrahydroquinoline-derived spiro-hydantoin compounds of Examples 1-4, respectively, were tested for their ability to reduce or inhibit aldose reductase enzyme activity via the procedure of S. Hayman et al., as described in the Journal of Biological Chemistry, Vol. 240, p. 877 (1965) and as modified by K. Sestanj et al. in U.S. Pat. No. 3,821,383. In every case, the substrate employed was partially purified aldose reductase enzyme obtained from calf lens.”

[3] = test system: formation of sorbitol levels in diabetic rats; experiment: inhibition of formation of sorbitol levels in diabetic rats, oral; assay type: in vivo, rat; conditions: 5.0 mg./kg. to 25 mg./kg.
Text: (§2) As previously indicated, the tetrahydroquinoline-derived spiro-hydantoin compounds of this invention are all readily adapted to therapeutic use as aldose reductase inhibitors for the control of chronic diabetic complications, in view of their ability to reduce lens sorbitol levels in diabetic subjects to a statistically significant degree. […] The other compounds of this invention also cause similar results. Furthermore, all the herein described compounds of this invention can be administered by either the oral or parenteral routes of administration, for the present purposes at hand, without causing any significant untoward pharmacological side reactions to occur in the subject to whom they are so administered. In general, these compounds are ordinarily administered in dosages ranging from about 0.25 mg. to about 25 mg. per kg. of body weight per day, although variations will necessarily occur depending upon the weight and condition of the subject being treated and the particular route of administration chosen.

[4] = toxic side effects in diabetic rats, oral; assay type: in vivo, rat; conditions: 5.0 mg./kg. to 25 mg./kg.
Text: as §2

Compound	IC50 (aldose reductase) [µM]	aldose reductase inhibitory activity (aldose reductase)	lowering sorbitol levels in the lens and sciatic nerve of diabetic subjects [1]	lowering galactitol levels in the lens of galactosemic subjects [2]	control (i.e., inhibit) the formation of sorbitol levels in diabetic rats [3]	toxic side effects [4]
CN1CCC2(NC(=O)NC2=O)c2cccnc21 (stereo not drawn) [Product of Example 2, 1'-methyl-1',2',3',4'-tetrahydro-spiro-[imidazolidine-4,4'-pyrido(2,3-b)pyridine]-2,5-dione]	10	highly potent	extremely effective	extremely effective	–	–
O=C1NC(=O)C2(CCNc3cc(Cl)ccc32)N1 (stereo not drawn) [Product of Example 3, 7'-chloro-1',2',3',4'-tetrahydro-spiro-[imidazolidine-4,4'-quinoline]-2,5-dione]	10	highly potent	extremely effective	extremely effective	–	–
O=C1NC(=O)C2(CCNc3ccc(Cl)cc32)N1 (stereo not drawn) [Product of Example 4, 6'-chloro-1',2',3',4'-tetrahydro-spiro-[imidazolidine-4,4'-quinoline]-2,5-dione]	1	highly potent	extremely effective	extremely effective	to a significantly high degree	without showing any substantial signs of toxic side effects
CN1CCC2(NC(=O)NC2=O)c2ccccc21.Cl (stereo not drawn) [Product of Example 1, 1'-methyl-1',2',3',4'-tetrahydro-spiro-[imidazolidine-4,4'-quinoline]-2,5-dione hydrochloride]	50	highly potent	extremely effective	extremely effective	–	–

Reference: US4235911A, “Hydantoin derivatives” (Pfizer Inc., priority 1979, dated 1980)
